# Calls of active or inactive are those of the source. No cut-off for these calls is given here.
# Columns and labels:
# [1] = Cytotoxicity against mouse corneal epithelial cells assessed as cell viability […] measured after 24 hrs by CCK8 assay relative to control; assay type: cell-based; settings: dose 25 µg/ml, read-out: Activity
# [2] = Cytotoxicity against mouse J774.A1 cells assessed as cell viability at 100 ug/ml measured after 24 hrs by CCK8 assay relative to control; assay type: cell-based; settings: at 100 µg/mL, read-out: Activity
# [3] = Cytotoxicity against mouse J774.A1 cells assessed as reduction in cell viability measured after 24 hrs by CCK8 assay; assay type: cell-based
# Staphylococcus aureus [4] = assay: Antibacterial activity against methicillin-resistant Staphylococcus aureus NCTC 10442 measured after 24 hrs by microplate reader analysis; assay type: functional
# [5] = Cytotoxicity against mouse corneal epithelial cells assessed as cell viability at […] ug/ml measured after 24 hrs by CCK8 assay relative to control; assay type: cell-based; settings: dose 1.56 µg/ml, read-out: Activity
# [6] = Selectivity index, ratio of HC50 for rabbit erythrocytes to MIC for Staphylococcus aureus ATCC 29213; assay type: toxicity; settings: read-out: Selectivity Index
# [7] = Hemolytic activity in rabbit erythrocytes assessed as hemolysis at 200 ug/ml measured after 1 hr by microplate reader analysis relative to control; assay type: ADME, cell-based, Oryctolagus cuniculus, Erythrocyte; settings: at 200 µg/mL, read-out: Activity
# [8] = Cytotoxicity against mouse J774.A1 cells assessed as cell viability at 25 ug/ml measured after 24 hrs by CCK8 assay relative to control; assay type: cell-based; settings: at 25 µg/mL, read-out: Activity
# Staphylococcus aureus [9] = assay: Antibacterial activity against Staphylococcus aureus ATCC 29213 measured after 24 hrs in presence of LTA by microplate reader analysis; assay type: functional
# [10] = Cytotoxicity against mouse corneal epithelial cells assessed as reduction in cell viability measured after 24 hrs by CCK8 assay; assay type: cell-based
# [11] = Cytotoxicity against mouse J774.A1 cells assessed as cell viability at 50 ug/ml measured after 24 hrs by CCK8 assay relative to control; assay type: cell-based; settings: at 50 µg/mL, read-out: Activity
# Bacillus subtilis [12] = assay: Displacement of BODIPYTM-TR-cadaverine from Bacillus subtilis LTA at 2 times MIC measured after 30 mins by fluorescence assay relative to control
# [13] = Cytotoxicity against mouse J774.A1 cells assessed as cell viability at […] ug/ml measured after 24 hrs by CCK8 assay relative to control; assay type: cell-based; settings: dose 1.56 µg/ml, read-out: Activity
# Cell membrane [14] = assay: Induction of inner membrane permeabilization in methicillin-resistant Staphylococcus aureus NCTC 10442 measured for 1 hr by SYTOX green dye based fluorescence assay; assay type: subcellular
# Bacillus subtilis [15] = assay: Displacement of BODIPYTM-TR-cadaverine from Bacillus subtilis LTA at MIC measured after 30 mins by fluorescence assay relative to control
# [16] = Cytotoxicity against mouse corneal epithelial cells assessed as cell viability at 50 ug/ml measured after 24 hrs by CCK8 assay relative to control; assay type: cell-based; settings: at 50 µg/mL, read-out: Activity
# Cell membrane [17] = assay: Induction of cell membrane damage in Staphylococcus aureus ATCC 29213 assessed as membrane perforation at 8 times MIC measured after 2 hrs by TEM analysis
# Cell membrane [18] = assay: Induction of inner membrane permeabilization in Staphylococcus aureus ATCC 29213 measured for 1 hr by SYTOX green dye based fluorescence assay; assay type: subcellular
# [19] = Cytotoxicity against mouse J774.A1 cells assessed as cell viability at 12.5 ug/ml measured after 24 hrs by CCK8 assay relative to control; assay type: cell-based; settings: at 12.5 µg/mL, read-out: Activity
# [20] = Toxicity in C57BL6 mouse assessed as corneal damage at 0.5% administered as topical solution for 4 times per day for 3 days and measured post-last dose by fluorescein sodium staining based slit-lamp biomicroscopic method; settings: in vivo, topical_or_ocular, 72 h, time 3 day
# Staphylococcus aureus [21] = assay: Antibacterial activity against methicillin-resistant Staphylococcus aureus N315 measured after 24 hrs by microplate reader analysis; assay type: functional
# Staphylococcus aureus [22] = assay: Antibacterial activity against Staphylococcus aureus ATCC 29213 at 0.5 times MIC passaged daily for 21 days; assay type: functional, organism-based; settings: time 21.0 day
# Bacillus subtilis [23] = assay: Displacement of BODIPYTM-TR-cadaverine from Bacillus subtilis LTA at 8 times MIC measured after 30 mins by fluorescence assay relative to control
# Staphylococcus aureus [24] = assay: Bactericidal activity against Staphylococcus aureus ATCC 29213 assessed as log reduction in bacterial count at 8 times MIC preincubated for 1 hr followed by replating on MHA medium measured after 24 hrs by time kill assay; assay type: functional; settings: time 25 hrs
# [25] = Hemolytic activity in rabbit erythrocytes measured after 1 hr by microplate reader analysis; assay type: ADME, cell-based, Oryctolagus cuniculus, Erythrocyte
# Staphylococcus aureus [26] = assay: Antibacterial activity against Staphylococcus aureus ATCC 29213 measured after 24 hrs by microplate reader analysis; assay type: functional
# [27] = Cytotoxicity against mouse corneal epithelial cells assessed as cell viability at 3.125 ug/ml measured after 24 hrs by CCK8 assay relative to control; assay type: cell-based; settings: at 3.125 µg/mL, read-out: Activity
# Cell membrane [28] = assay: Induction of cell membrane damage in Staphylococcus aureus ATCC 29213 assessed as membrane perforation at 8 times MIC measured after 2 hrs by SEM analysis
# [29] = Cytotoxicity against mouse corneal epithelial cells assessed as cell viability at 100 ug/ml measured after 24 hrs by CCK8 assay relative to control; assay type: cell-based; settings: at 100 µg/mL, read-out: Activity
# [30] = Cytotoxicity against mouse corneal epithelial cells assessed as cell viability at 12.5 ug/ml measured after 24 hrs by CCK8 assay relative to control; assay type: cell-based; settings: at 12.5 µg/mL, read-out: Activity
# [31] = Cytotoxicity against mouse J774.A1 cells assessed as cell viability at 3.125 ug/ml measured after 24 hrs by CCK8 assay relative to control; assay type: cell-based; settings: at 3.125 µg/mL, read-out: Activity
# [32] = Selectivity index, ratio of HC50 for rabbit erythrocytes to MIC for methicillin-resistant Staphylococcus aureus N315; assay type: toxicity; settings: read-out: Selectivity Index
# Cell membrane [33] = assay: Induction of cell membrane damage in Staphylococcus aureus ATCC 29213 assessed as wrinkle formation at 8 times MIC measured after 2 hrs by SEM analysis; assay type: subcellular
# [34] = Cytotoxicity against mouse corneal epithelial cells assessed as cell viability at 6.25 ug/ml measured after 24 hrs by CCK8 assay relative to control; assay type: cell-based; settings: at 6.25 µg/mL, read-out: Activity
# [35] = Cytotoxicity against mouse J774.A1 cells assessed as cell viability at 6.25 ug/ml measured after 24 hrs by CCK8 assay relative to control; assay type: cell-based; settings: at 6.25 µg/mL, read-out: Activity
# Staphylococcus aureus [36] = assay: Antibacterial activity against methicillin-resistant Staphylococcus aureus NCTC 10442 measured after 24 hrs in presence of LTA by microplate reader analysis; assay type: functional
# Staphylococcus aureus [37] = assay: Antibacterial activity against Staphylococcus aureus ATCC 29213 infected in cyclophosphamide-immunosuppressed C57BL6 mouse cornea assessed as log reduction in corneal bacterial count at 0.5% administered as topical solution for 4 times per day for 3 days and measured post-last dose by standard plate counting method; assay type: functional; settings: time 3 day
# [38] = Selectivity index, ratio of HC50 for rabbit erythrocytes to MIC for methicillin-resistant Staphylococcus aureus NCTC 10442; assay type: toxicity; settings: read-out: Selectivity Index
# Cell membrane [39] = assay: Disruption of cell membrane integrity in Staphylococcus aureus ATCC 29213 assessed as increase in red fluorescence at 8 times MIC measured after 2 hrs by Syto9/propidium iodide Live/dead staining based laser confocal microscopic analysis; assay type: subcellular
# Bacillus subtilis [40] = assay: Displacement of BODIPYTM-TR-cadaverine from Bacillus subtilis LTA at 4 times MIC measured after 30 mins by fluorescence assay relative to control
# Staphylococcus aureus [41] = assay: Bactericidal activity against Staphylococcus aureus ATCC 29213 assessed as log reduction in bacterial count at 4 times MIC preincubated for 4 hrs followed by replating on MHA medium measured after 24 hrs by time kill assay; assay type: functional; settings: time 28 hrs
smiles,measurement,setting,value
CC(C)=CCn1c2ccccc2c2c(OCC(O)CNC(=N)N)cccc21 (stereo unspecified),viability at 24 h,[1],34.1%
same,"viability at 24 h, 100 ug/ml",[2],20.5%
same,CC50 at 24 h,[3],37.2 µg/mL
same,MIC,Staphylococcus aureus [4],1.56 µg/mL
same,"viability at 24 h, 1.56 ug/ml",[5],88.3%
same,selectivity ratio,[6],> 128
same,"hemolysis at 1 h, 200 ug/ml",[7],3.5%
same,"viability at 24 h, 25 ug/ml",[8],78.2%
same,MIC,Staphylococcus aureus [9],1.56 µg/mL
same,CC50 at 24 h,[10],23.8 µg/mL
same,"viability at 24 h, 50 ug/ml",[11],28.1%
same,inhibition,Bacillus subtilis [12],22.3%
same,"viability at 24 h, 1.56 ug/ml",[13],96.3%
same,Activity,Cell membrane [14],Dose-dependent effect
same,inhibition,Bacillus subtilis [15],12.9%
same,"viability at 24 h, 50 ug/ml",[16],8.52%
same,Activity,Cell membrane [17],Active
same,Activity,Cell membrane [18],Dose-dependent effect
same,"viability at 24 h, 12.5 ug/ml",[19],80.5%
same,Activity,[20],Non-Toxic
same,MIC,Staphylococcus aureus [21],0.78 µg/mL
same,Activity,Staphylococcus aureus [22],Active
same,inhibition,Bacillus subtilis [23],35.8%
same,log(activity),Staphylococcus aureus [24],3.21
same,HC50 at 1 h,[25],> 200 µg/mL
same,MIC,Staphylococcus aureus [26],1.56 µg/mL
same,"viability at 24 h, 3.125 ug/ml",[27],87.9%
same,Activity,Cell membrane [28],Active
same,"viability at 24 h, 100 ug/ml",[29],6.65%
same,"viability at 24 h, 12.5 ug/ml",[30],75.1%
same,"viability at 24 h, 3.125 ug/ml",[31],95%
same,selectivity ratio,[32],> 128
same,Activity,Cell membrane [33],Active
same,"viability at 24 h, 6.25 ug/ml",[34],85.3%
same,"viability at 24 h, 6.25 ug/ml",[35],86.2%
same,MIC,Staphylococcus aureus [36],1.56 µg/mL
same,log(activity),Staphylococcus aureus [37],4.17
same,selectivity ratio,[38],> 128
same,Activity,Cell membrane [39],Active
same,inhibition,Bacillus subtilis [40],28.8%
same,log(activity),Staphylococcus aureus [41],3.45
